Publication PMC7380640, “Development of a brain-permeable peptide nanofiber that prevents aggregation of Alzheimer pathogenic proteins” (PLoS ONE, 2020)
Where a SMILES comes first, the peptide text is derived from it.

How the values were obtained:
[1] = system: Aβ (1–42); settings: 100 nM of Aβ (1–42); cited from earlier work
Method: The neutral αAC nanofibers suppressed aggregation of Aβ (1–42), without promoting the aggregation of 3RMBDof tau (Fig 2) and cytotoxicity of Aβ (1–42) against PC12 cells (Fig 7). Several brain-permeable low molecular weight compounds that suppress the aggregation of amyloidβ have been proposed as therapeutic drugs for AD [48–55]; unfortunately, the affinity of these compounds for Aβ tends to be low. For example, >100 nM of curcumin is required to inhibit the cytotoxicity of 100 nM of Aβ (1–42).

[2] = target: T1, trypsin (Bos taurus, UniProt P00760); experiment: Proteolytic digestion with trypsin (GPC); assay type: in vitro ADME; settings: 200 μM peptide or nanofiber, 12 μM trypsin (type XIII, bovine pancreas), 5 mM phosphate 100 mM NaCl pH 7.5, 37°C, GPC peak of FVIFLDVK, A220
T1 construct: purchased type XIII; host or cells: bovine pancreas
T1 sequence (P00760 24-246): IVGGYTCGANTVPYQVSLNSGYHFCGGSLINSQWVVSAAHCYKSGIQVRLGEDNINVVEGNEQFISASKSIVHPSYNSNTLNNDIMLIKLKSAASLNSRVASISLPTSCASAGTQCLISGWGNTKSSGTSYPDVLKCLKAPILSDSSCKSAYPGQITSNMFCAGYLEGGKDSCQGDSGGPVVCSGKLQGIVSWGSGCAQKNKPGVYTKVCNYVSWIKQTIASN
Method: The αAC peptides or the neutralαAC nanofiber (200 μM) were incubated with trypsin (12 μM, type XIII from bovine pancreas) in 5 mM phosphate buffer containing 100 mM NaCl (pH 7.5) at 37°C. The molecular mass of the digested peptides were analyzed with MALDI-TOF mass spectroscopy using a BrukerAutoflex Speed instrument. The proteolyzed sample of αAC nanofibers was centrifuged (10,000g for 5 min) to separate the peptide fragments from the nanofibers. The apparent rate of proteolysis of αAC(71–88) was estimated from gel permeation chromatography analysis using a Superdex^TMpeptide 10/300 GL column (GE Healthcare, Piscataway, NJ). Water including 30% acetonitrile and 0.1% TFA was used as the elution solvent.

[3] = system: rat pheochromocytoma (PC12); settings: cited from earlier work
Description: (§1) Alzheimer’s disease (AD) is a progressive neurodegenerative disorder and the most common form of dementia characterized by senile plaque (SP), which is the extracellular deposit of amyloidβ(Aβ)aggregates,and neurofibrillary tangle, which is the intracellular accumulation of phosphorylated tau protein [3]. Although highly ordered linear Aβaggregates, known as amyloid fibrils, are the major component of SP and one of the hallmark features of AD, soluble oligomers of aggregates are regarded as more cytotoxic. The therapeutic use of peptide inhibitors of pathological ...

[4] = system: Aβ peptides; settings: cited from earlier work
Description: as §1

For `COc1cc(/C=C/C(=O)CC(=O)/C=C/c2ccc(O)c(OC)c2)ccc1O` [curcumin], which “concentration required to inhibit the cytotoxicity of Aβ (1–42)” value [1] is on record?
The value was > 100 nM.

For `CC[C@H](C)[C@H](NC(=O)[C@@H](NC(=O)[C@@H](N)Cc1ccccc1)C(C)C)C(=O)N[C@@H](Cc1ccccc1)C(=O)N[C@@H](CC(C)C)C(=O)N[C@@H](CC(=O)O)C(=O)N[C@H](C(=O)N[C@@H](CCCCN)C(=O)N[C@@H](Cc1c[nH]cn1)C(=O)N[C@@H](Cc1ccccc1)C(=O)N[C@@H](CO)C(=O)N1CCC[C@H]1C(=O)N[C@@H](CCC(=O)O)C(=O)N[C@@H](CC(=O)O)C(=O)N[C@@H](CC(C)C)C(=O)N[C@H](C(=O)N[C@H](C(=O)N[C@@H](CCCCN)C(=O)O)C(C)C)[C@@H](C)O)C(C)C` [αAC(71–88)] (H-FVIFLDVKHFSPEDLTVK-OH), which “fraction of αAC(71–88) digested (single cleavage) after 24 h proteolysis” value [2] is on record?
Its value is “ca. 90%”.

For DFVIFLDVKHFSPEDLTVK, which “effect on toxicity of Aβ in PC12” value ([3]; rat pheochromocytoma (PC12)) is on record?
Its value is “suppress the toxicity”.

And the “effect on fibril formation of Aβ peptides” value [4]?
The value was “inhibit fibril formation”.

With “DFVIFLDVKHFSPEDLTVK [CPP-fused αAC peptides, cell-penetrating peptide-fused type peptides of the αA-crystallin peptide]” as the molecule, how does the “effect on Aβ toxicity” value [3] read?
Its value is “suppress Aβ toxicity”.

What about the “effect on Aβ fibril formation” value [4] of the same molecule?
Its value is “prevented Aβ fibril formation”.
